Laboratory results taken from patent US20240269139A1, “COMPOUNDS FOR TARGETED PROTEIN DEGRADATION OF KINASES” (DANA-FARBER CANCER INSTITUTE, INC., priority 2020, published 2024).
Read-outs that look alike come from different tables or passages of the source.

Columns and labels:
[1] = target: T1, protein kinases (human kinome) (Homo sapiens, UniProt Q969Z0); assay type: cell-based; conditions: Accession Q969Z0-1; experiment wp160, 1 hr; direction down
T1 sequence (Q969Z0 108-631): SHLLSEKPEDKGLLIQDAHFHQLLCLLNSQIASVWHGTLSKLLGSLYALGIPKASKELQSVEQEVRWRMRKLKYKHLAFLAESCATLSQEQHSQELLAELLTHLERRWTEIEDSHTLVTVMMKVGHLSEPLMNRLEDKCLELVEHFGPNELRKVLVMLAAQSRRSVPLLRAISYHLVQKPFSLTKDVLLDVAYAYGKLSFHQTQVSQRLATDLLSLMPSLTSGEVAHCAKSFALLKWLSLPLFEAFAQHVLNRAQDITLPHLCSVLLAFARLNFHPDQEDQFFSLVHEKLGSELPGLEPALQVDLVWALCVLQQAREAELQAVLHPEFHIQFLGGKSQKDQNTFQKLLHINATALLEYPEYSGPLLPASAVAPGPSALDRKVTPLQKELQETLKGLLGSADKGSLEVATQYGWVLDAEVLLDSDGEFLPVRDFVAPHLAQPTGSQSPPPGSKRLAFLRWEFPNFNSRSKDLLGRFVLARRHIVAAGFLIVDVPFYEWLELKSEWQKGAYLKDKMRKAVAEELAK

[2] = target: protein kinases (human kinome) (Homo sapiens, UniProt P53667); assay type: cell-based; conditions: LIMK1 (P53667-1)
Sequence of protein kinases (human kinome) (Homo sapiens, UniProt P53667) (P53667 whole entry): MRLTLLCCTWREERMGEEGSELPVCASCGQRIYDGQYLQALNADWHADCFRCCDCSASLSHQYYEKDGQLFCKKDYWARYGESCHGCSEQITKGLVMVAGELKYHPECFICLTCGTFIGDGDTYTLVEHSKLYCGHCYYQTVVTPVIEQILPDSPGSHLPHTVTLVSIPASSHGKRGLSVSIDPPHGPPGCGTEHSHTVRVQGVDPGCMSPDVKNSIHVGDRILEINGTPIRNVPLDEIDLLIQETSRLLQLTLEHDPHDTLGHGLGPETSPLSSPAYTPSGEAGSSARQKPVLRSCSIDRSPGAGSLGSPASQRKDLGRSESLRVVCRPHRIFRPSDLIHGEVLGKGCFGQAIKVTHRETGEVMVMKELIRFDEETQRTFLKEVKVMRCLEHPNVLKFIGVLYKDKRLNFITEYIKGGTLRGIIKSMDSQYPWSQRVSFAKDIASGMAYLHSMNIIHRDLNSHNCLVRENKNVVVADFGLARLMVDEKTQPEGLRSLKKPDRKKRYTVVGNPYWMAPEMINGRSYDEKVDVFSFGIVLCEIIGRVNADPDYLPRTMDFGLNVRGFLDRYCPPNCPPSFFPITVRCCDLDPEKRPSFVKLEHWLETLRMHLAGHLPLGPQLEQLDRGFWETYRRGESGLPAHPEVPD

[3] = target: protein kinases (human kinome) (Homo sapiens, UniProt Q00534); assay type: cell-based; conditions: for logFC CDK6: CDK6 (Q00534), direction down; for logFC of CDK6 (Q00534): down
Sequence of protein kinases (human kinome) (Homo sapiens, UniProt Q00534) (Q00534 whole entry): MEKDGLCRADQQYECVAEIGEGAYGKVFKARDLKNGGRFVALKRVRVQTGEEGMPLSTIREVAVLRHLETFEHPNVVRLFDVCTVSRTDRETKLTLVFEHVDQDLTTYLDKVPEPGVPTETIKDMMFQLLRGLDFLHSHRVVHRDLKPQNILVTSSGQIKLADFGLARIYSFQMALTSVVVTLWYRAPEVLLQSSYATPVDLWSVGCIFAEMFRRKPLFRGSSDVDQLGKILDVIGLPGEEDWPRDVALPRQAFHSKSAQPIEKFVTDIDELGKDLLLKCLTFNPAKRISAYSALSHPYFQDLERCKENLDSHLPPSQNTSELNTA

[4] = target: T2, extended human kinome (kinase-like proteins) (Homo sapiens, UniProt P54886); test: Whole cell quantitative proteomics: extended kinome hits; conditions: Accession P54886; experiment wp160; 1 hr
T2 sequence (P54886 1-795): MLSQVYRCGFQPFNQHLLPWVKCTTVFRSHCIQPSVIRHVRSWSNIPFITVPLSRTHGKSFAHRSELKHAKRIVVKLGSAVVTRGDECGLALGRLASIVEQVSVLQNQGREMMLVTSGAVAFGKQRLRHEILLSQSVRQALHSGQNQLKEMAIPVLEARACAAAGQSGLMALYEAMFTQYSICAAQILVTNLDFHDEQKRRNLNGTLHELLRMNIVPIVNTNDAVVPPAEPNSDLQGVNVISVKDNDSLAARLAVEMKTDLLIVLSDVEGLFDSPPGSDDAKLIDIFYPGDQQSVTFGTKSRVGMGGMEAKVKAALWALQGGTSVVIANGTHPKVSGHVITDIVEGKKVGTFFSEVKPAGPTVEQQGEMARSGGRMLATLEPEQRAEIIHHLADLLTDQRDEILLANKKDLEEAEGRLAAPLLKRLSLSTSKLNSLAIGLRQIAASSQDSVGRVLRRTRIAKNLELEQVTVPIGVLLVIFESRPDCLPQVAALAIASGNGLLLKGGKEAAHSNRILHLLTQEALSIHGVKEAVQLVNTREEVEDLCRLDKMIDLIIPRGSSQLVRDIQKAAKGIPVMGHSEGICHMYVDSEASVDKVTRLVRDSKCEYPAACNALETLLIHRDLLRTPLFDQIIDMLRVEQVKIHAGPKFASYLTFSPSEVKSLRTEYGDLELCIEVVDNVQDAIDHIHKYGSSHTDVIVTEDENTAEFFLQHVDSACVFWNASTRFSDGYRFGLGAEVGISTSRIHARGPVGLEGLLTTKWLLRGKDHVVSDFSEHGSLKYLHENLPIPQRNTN

SMILES: CC(C)S(=O)(=O)c1ccccc1Nc1nc(Nc2ccc(N3CCN(CCOCCNC(=O)CNc4cccc5c4C(=O)N(C4CCC(=O)NC4=O)C5=O)CC3)cc2)ncc1Cl (centres unmarked) [SK.3.91]
- logFC TBRG4 [1]: −0.9113
- logFC LIMK1 ([2]; direction down, experiment wp103): −1.238
- logFC LIMK1 ([2]; direction down, experiment wp105): −1.464
- logFC LIMK1 ([2]; direction down, experiment wp107): −0.8704
- logFC LIMK1 ([2]; direction down, experiment wp114): −0.546
- logFC LIMK1 ([2]; direction down, experiment wp133, 1 hr): −0.4117
- logFC LIMK1 ([2]; direction down, experiment wp133, 2 hr): −0.8026
- logFC LIMK1 ([2]; direction down, experiment wp133, 4 hr): −1.371
- logFC LIMK1 ([2]; direction down, experiment wp160, 2 hr): −0.8634
- logFC LIMK1 ([2]; direction down, experiment wp160, 4 hr): −1.366
- logFC LIMK1 ([2]; direction down, experiment wp172): −1.869
- logFC LIMK1 ([2]; experiment wp103, down): −1.238
- logFC LIMK1 ([2]; experiment wp105, down): −1.464
- logFC LIMK1 ([2]; experiment wp107, down): −0.8704
- logFC LIMK1 ([2]; experiment wp114, down): −0.546
- logFC LIMK1 ([2]; experiment wp133, 1 hr, down): −0.4117
- logFC LIMK1 ([2]; experiment wp133, 2 hr, down): −0.8026
- logFC LIMK1 ([2]; experiment wp133, 4 hr, down): −1.371
- logFC LIMK1 ([2]; experiment wp160, 2 hr, down): −0.8634
- logFC LIMK1 ([2]; experiment wp160, 4 hr, down): −1.366
- logFC LIMK1 ([2]; experiment wp172, down): −1.869
- logFC CDK6 ([3]; experiment wp016): −0.8832
- logFC CDK6 ([3]; experiment wp016, 1 uM): −1.149
- logFC CDK6 ([3]; experiment wp103): −0.9349
- logFC CDK6 ([3]; experiment wp105): −0.5421
- logFC CDK6 ([3]; experiment wp107): −1.012
- logFC CDK6 ([3]; experiment wp133, 1 hr): −0.3542
- logFC CDK6 ([3]; experiment wp133, 2 hr): −0.6404
- logFC CDK6 ([3]; experiment wp133, 4 hr): −1.05
- logFC CDK6 ([3]; experiment wp160, 1 hr): −0.3255
- logFC CDK6 ([3]; experiment wp160, 2 hr): −0.5948
- logFC CDK6 ([3]; experiment wp160, 4 hr): −1.133
- logFC of CDK6 (Q00534) ([3]; Experiment wp016, 1 uM): −1.149
- logFC of CDK6 (Q00534) ([3]; Experiment wp016): −0.8832
- logFC of CDK6 (Q00534) ([3]; Experiment wp103): −0.9349
- logFC of CDK6 (Q00534) ([3]; Experiment wp105): −0.5421
- logFC of CDK6 (Q00534) ([3]; Experiment wp107): −1.012
- logFC of CDK6 (Q00534) ([3]; Experiment wp133, 1 hr): −0.3542
- logFC of CDK6 (Q00534) ([3]; Experiment wp133, 2 hr): −0.6404
- logFC of CDK6 (Q00534) ([3]; Experiment wp133, 4 hr): −1.05
- logFC of CDK6 (Q00534) ([3]; Experiment wp160, 1 hr): −0.3255
- logFC of CDK6 (Q00534) ([3]; Experiment wp160, 2 hr): −0.5948
- logFC of CDK6 (Q00534) ([3]; Experiment wp160, 4 hr): −1.133
- logFC ALDH18A1 [4]: −0.9684
